Experiments:
Format in all cases: cell-based
[1] = test system: control tomato (line 91103, nontransformed control) leaf explants; experiment: GUS assay of SSR pPO7110 in precultured leaf explants, control tomato
Protocol: (§1) Two 4 mm discs were cut from each leaf and placed into a solution of Agrobacteria harboring either the suppression-sensitive GUS reporter construct pPO7110 or a control, nonsuppression-sensitive GUS construct, such as pPO7113, that lacks LE-ACS-2 sequences but is identical in every other respect. The Agrobacteria were previously grown in minimal medium containing sucrose and tetracycline at 1 mg/l to an apparent optical density of about 0.2 at 550 nm. Cultures at densities ranging from 0.1-0.4 were used, but the final density was always adjusted to 0.2 at 550 nm using growth medium. Discs were incubated with the Agrobacteria for 0.5-1.5 minutes, then removed and placed on sterile filter paper that was placed on top of tomato cocultivation medium (MS salts with IAA @ 0.05 mg/l, zeatin @ 1 mg/l and 100 μM acetosyringone and 1% gelrite).
(§2) The plates were incubated at 28° C. in the dark for 2.5 days whereupon the discs were removed and stained for GUS activity using 5-bromo-4-chloro-3-indolyl […] (X-Gluc). The discs were vacuum infiltrated for 2 minutes with the substrate solution containing 100 mM potassium phosphate pH 7.0, 10 mM EDTA, 2 mM potassium ferricyanide, 2 mM potassium ferrocyanide, 500 mg/1 X-Gluc, and 0.1% Triton X-100. Incubation was continued overnight (about 14-16 hr) at 37° C. and the plates were visually inspected for the presence of the insoluble blue precipitate a product of the GUS enzyme acting on the X-Gluc substrate. Tissues derived from nontransformed plants or transformed plants not displaying sense suppression will show the presence of a blue precipitate indicative of GUS activity while tissue derived from plants in the suppressed state will show no or comparatively little blue precipitate.
(§3) Strawberry plants which were continuously cultured in axenic conditions in vitro are used as a source of leaf explants. No ethanol dip or other form of surface sterilization was done on the strawberry leaves. […] This preculture step was carried out under lights at 28° C. for 4 days.
(§4) Three different concentrations of acetyosyringone were used in the preculture medium, 100 μM, 250 μM and 1000 μM.

[2] = test system: 1345 tomato (an LE-ACS-2 suppressant) leaf explants; experiment: GUS assay of SSR pPO7110 in precultured leaf explants, 1345 tomato
Protocol: as §1, §2, §3, §4

[3] = test system: strawberry leaf explants; experiment: GUS assay in precultured leaf explants, strawberry
Protocol: as §1, §2, §3, §4

[4] = vac 100AS (100 μM acetosyringone in preculture medium)
[5] = vac 250AS (250 μM acetosyringone)
[6] = vac 1000AS (1000 μM acetosyringone)
[7] = 1 mg/l hormone in preculture/cocultivation medium, 0-10 scale

SMILES | GUS Assay Results, visual rating of GUS staining (mean in parentheses) [1, 4] | GUS Assay Results, visual rating of GUS staining (mean in parentheses) [1, 5] | GUS Assay Results, visual rating of GUS staining (mean in parentheses) [1, 6] | GUS Assay Results, visual rating of GUS staining (mean in parentheses) [2, 4] | GUS Assay Results, visual rating of GUS staining (mean in parentheses) [2, 5] | GUS Assay Results, visual rating of GUS staining (mean in parentheses) [2, 6] | GUS Assay Results, visual rating of GUS staining (mean in parentheses) [3, 4] | GUS Assay Results, visual rating of GUS staining (mean in parentheses) [3, 5] | GUS Assay Results, visual rating of GUS staining (mean in parentheses) [3, 6] | GUS Assay Results, visual rating of GUS staining (mean in parentheses) [1, 7] | GUS Assay Results, visual rating of GUS staining (mean in parentheses) [2, 7] | GUS Assay Results, visual rating of GUS staining (mean in parentheses) [3, 7] | GUS Assay Results, visual rating of GUS staining (mean in parentheses) ([1]; 3 mg/l NAA) | GUS Assay Results, visual rating of GUS staining (mean in parentheses) ([2]; 3 mg/l NAA) | GUS Assay Results, visual rating of GUS staining (mean in parentheses) ([3]; 3 mg/l NAA)
COc1cc(C(C)=O)cc(OC)c1O [AS, acetosyringone] | 0,0,0,0 (0) | 0,0,0,0 (0) | 0,0,1,2 (0.8) | 0,0,0,0 (0) | 0,0,0,0 (0) | 0,0,0,0 (0) | 0,0,0,0 (0) | 0,0,0,0 (0) | 0,0,0,0 (0) |  |  |  |  |  | 
O=C(O)COc1ccc(Cl)cc1Cl [2,4-D] |  |  |  |  |  |  |  |  |  | 3,4,7,8 (5.5) | 2,2,3 (2.3) | 0,0,0,0 (0) |  |  | 
O=C(O)Cc1cccc2ccccc12 [NAA] |  |  |  |  |  |  |  |  |  | 0,1,3,3 (1.8) | 0,0,0,1 (0.3) | 0,0,0,0 (0) | 3,6,6,6 (5.25) | 0,1,2,4 (1.8) | 0,0,0,1 (0.3)
O=C(O)Cc1c[nH]c2ccccc12 [IAA] |  |  |  |  |  |  |  |  |  | 5,8,9,9 (7.8) | 0,4,4,6 (4.7) | 0,0,0,0 (0) |  |  | 

From patent publication US6452067B1, “Methods to assay for post-transcriptional suppression of gene expression” (DNA Plant Technology Corporation, priority 1997, dated 2002)
